The term Ki denotes a measure of affinity in units of concentration, obtained from inhibition or displacement. Low readings indicate a stronger hold on the target, high ones a looser hold on the target. A word on the IC50: it is the concentration that gives 50% inhibition. As usually defined, the EC50 is the concentration that produces a half-maximal response. A lower EC50 goes with greater potency. As a reminder, the inhibition is the share of the control response that was lost under treatment.

Experiment [1] addresses T1, IDO1 (Homo sapiens, UniProt P14902). The experiment can be described thus: Determination of mode of enzyme inhibition (Lineweaver-Burk). Format: biochemical. Details: made in house; host or cells: Escherichia coli M15 (pQE30 vector with pREP4 plasmid). The following applies: for Ki: Km = 59.76 µM and Kcat = 6.18 sec-1; for Mode of IDO1 inhibition: with respect to L-Trp. The procedure: The mode of IDO1 enzyme inhibition was measured according to the reported spectrophotometric method. The assay was performed by varying both tryptophan concentration from 50 to 150 µM and inhibitor concentration from 32 nM to 4 µM. The amount of formation of N-formylkynurenine was recorded at different time intervals. The mode of enzyme inhibition was determined from the plot of 1/V against 1/[S], where V is the initial rate of the enzymatic reaction and [S] is the L-Trp concentration.

Experiment [2] has as its target T2, purified human IDO1 enzyme (Homo sapiens, UniProt P14902).
T2 construct: made in house; host or cells: Escherichia coli M15 (pQE30 vector with pREP4 plasmid)
The experiment can be described thus: IDO1 inhibition assay by the spectrometric method (pDMAB). The following applies: for IC50: purified human IDO1, spectrophotometric, mean of three independent assays, read-out: hIDO1 IC50; for fold stronger IDO1 inhibition than MMG-0358: similar experimental conditions. It is filed as biochemical. Put shortly: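 Inhibitors serially diluted from 100 µM to 32 nM, DMSO 0.02–2%. Reaction quenched with 30% (w/v) TCA and held 15 min at 65 °C. Kynurenine formed was detected with 2% (w/v) pDMAB by absorbance at 480 nm.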

Experiment [3] has as its target T1, IDO1. Nature of the experiment: Cellular IDO1 activity assay in IFN-γ induced MDA-MB-231 cells. The settings on record: IDO1 expression induced by human IFN-γ (50 ng/mL); mean of three. Set-up: induce the expression of the native IDO1 enzyme from its mRNA in the MDA-MB-231 cells; endogenous in cells; host or cells: MDA-MB-231 cells induced with human IFN-γ (50 ng/mL). Format: cell-based. Here is the method: The cellular enzyme activity assay was performed according to the reported procedure with minor modifications[19],[27]–[30],[33],[54]. Briefly, MDA-MB-231 breast cancer cells were selected for this assay because of the presence of IDO1 mRNA in this cell line. First, cells were grown in DMEM/F12 complete media overnight. Then different concentration of human interferon-gamma (IFN-γ) (from 5–1000 ng/mL) was added to it and incubated for 48 hours. This treatment is reported to allow over-expression of IDO1 enzyme in MDA-MB-231 cells. […] Sterile cell-culture grade PBS was used to wash the cells by centrifugation technique. Then, the pellet was lysed in 10 mM HEPES buffer by passing through a sterile syringe. The lysate was used for standard IDO1 assay as mentioned earlier. The relative amount of N-formylkynurenine generated in the presence of the different concentration of IFN-γ was used to optimize the required concentration of IFN-γ for the IDO1 inhibition assay. […] Cells stimulated with IFN-γ alone were used as negative control, while cells stimulated with L-Trp without compound served as positive control. The cells were washed with sterile cell culture grade PBS and lysed in 10 mM HEPES buffer by sterile syringe. The lysate was used for standard IDO1 assay, as mentioned earlier, and the extent of IDO1 enzyme inhibition was determined for the selected compounds.

The subject of the next experiment is EAC solid tumor. Nature of the experiment: EAC solid tumor model in vivo. The settings on record: for tumor growth inhibition (TGI): 5 mg/kg body weight, intravenously at alternate days, female Swiss albino mice; for CD8+ T cell population in vivo solid tumors: flow cytometry of tumor tissue post sacrifice. Details: species or system female Swiss albino mice. Here is the method: Female Swiss albino mice of age 6 weeks (weight = 20 gm) were selected for the experiments. Animals were housed in animal facility room, Department of Zoology, University of Calcutta at 25 ± 2 °C, relative humidity of nearly 45 ± 5% with alternative 12 hours day/ night cycle with access of food and water. All the experiments were carried out as per guideline of the Committee for the Purpose of Control and Supervision of Experimental Animals (CPCSEA), Government of India (Registration No: 885/GO/Re/S/05/CPCSEA) and approved by the Institutional animal ethical committee (IAEC), University of Calcutta.
Ehrlich ascites carcinoma (EAC) cells were maintained in the ascetic form in female Swiss albino mice by intraperitoneal transplantation every 10th day on each mice. The ascetic fluid was drawn on 7th day on implantation according to previously described protocol. Isolated cells were diluted in sterile PBS. 2 × 10^6 cells were then implanted on thigh muscle of all the animals selected for experiment.
Female Swiss albino mice were divided into four groups (n = 6 each group). Post inoculation of the cells in thigh muscle on day 0 mice in their respective group was allowed to treat for 5 days on every alternate day at treatment of 5 mg/ kg body weight described below. All the mice were sacrificed on day 10.
Tumor tissues post sacrifice were digested in collagenase IV medium for 2 hours. The tissues were passed through wire mesh and single-cell strainer. Then the cells were washed in PBS, and immunophenotyping was performed, and cells were stained against APC-CD8 for finding infiltrated CD8 T cell populations by flow cytometry analysis.
(A flow cytometer gives signals particle by particle.)

Where “and” joins values, the source holds several entries; their conditions need not be identical. Equal values may be shown once.

T1 sequence (P14902 whole entry): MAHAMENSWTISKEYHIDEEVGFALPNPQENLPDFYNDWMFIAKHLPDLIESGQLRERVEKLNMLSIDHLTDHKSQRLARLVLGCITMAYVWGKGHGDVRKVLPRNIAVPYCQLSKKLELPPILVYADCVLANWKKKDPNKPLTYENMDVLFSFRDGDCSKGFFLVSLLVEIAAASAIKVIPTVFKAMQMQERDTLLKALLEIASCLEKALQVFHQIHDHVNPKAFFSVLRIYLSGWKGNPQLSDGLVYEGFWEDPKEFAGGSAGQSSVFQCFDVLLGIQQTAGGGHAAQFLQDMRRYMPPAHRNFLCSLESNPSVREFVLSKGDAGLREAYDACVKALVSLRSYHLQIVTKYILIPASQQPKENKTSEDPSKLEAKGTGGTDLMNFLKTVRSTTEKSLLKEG
T2 sequence (P14902 whole entry): as above

On to `CCOC(=O)c1n[nH]nc1-c1ccc(F)c(F)c1` [Compound 2i], for which, on IDO1 [1], the affinity corresponds to a Ki of 0.241 ± 0.038 µM and the “Mode of IDO1 inhibition” value was “competitive”. Further, the IC50 in experiment [2] was found to be 0.545 ± 0.029 µM. On IDO1 [3], this compound displayed a concentration giving a half-maximal response (EC50) of 0.162 ± 0.015 µM.

For the compound `O=C(N/C(Cc1ccc(O)cc1)=N\O)c1n[nH]nc1-c1ccc(F)c(F)c1` [Compound 4i], in the experiment with EAC solid tumor, the “tumor growth inhibition (TGI)” value is 79–96% and the “CD8+ T cell population in vivo solid tumors” value (“CD8+ T cell population” below) is “induces CD8+ T cell population”. Moreover, on IDO1 [1], the Ki was found to be 0.258 ± 0.022 µM and the “Mode of IDO1 inhibition” value is “competitive”. Moreover, the IC50 in experiment [2] came to 0.094 ± 0.004 µM. The same compound had a 50% effective concentration (EC50) on IDO1 [3] of 0.088 ± 0.01 µM.

On to `NC(=O)c1n[nH]nc1-c1ccc(F)c(F)c1` [Compound 3i], for which, in the experiment on EAC solid tumor, the “tumor growth inhibition (TGI)” value was 79–96% and 96%; the “CD8+ T cell population” value was “induces CD8+ T cell population”. Besides, on IDO1 [1], the Ki came to 0.16 ± 0.015 µM and the “Mode of IDO1 inhibition” value was “competitive”. Moreover, in experiment [2], the IC50 is 0.111 ± 0.005 µM and the “fold stronger IDO1 inhibition than MMG-0358” value was found to be 3 fold. Also, the EC50 at IDO1 [3] worked out at 0.074 ± 0.017 µM.

With `NS(=O)(=O)NCCNC(=O)c1n[nH]nc1-c1ccc(F)c(F)c1` [Compound 4k], in the experiment with EAC solid tumor, the “tumor growth inhibition (TGI)” value is on record as 79–96% and the “CD8+ T cell population” value is recorded as “induces CD8+ T cell population”. Also, at IDO1 [1], the Ki came to 0.098 ± 0.011 µM and the “Mode of IDO1 inhibition” value is recorded as “competitive”. Moreover, the inhibition at 4 µM in experiment [2] (4 μM compound) was 71 to 86%. Also, in experiment [2] (100 μM compound), the inhibition at 100 µM lay in the range of 82 to 93%. In addition, in experiment [2], the IC50 is 0.092 ± 0.012 µM and the “fold stronger IDO1 inhibition than MMG-0358” value turned out to be 3 fold. The compound also showed an EC50 on IDO1 [3] of 0.077 ± 0.005 µM.

Source of the values: article PMC6895048, “4,5-Disubstituted 1,2,3-triazoles: Effective Inhibition of Indoleamine 2,3-Dioxygenase 1 Enzyme Regulates T cell Activity and Mitigates Tumor Growth” (Scientific Reports, 2019).
